Measured values reported in the NIST ThermoML archive (doi:10.1021/je050182i).
Several values for one entry are separate records, joined by “and”; a condition that tells them apart may be missing. Identical values can stand only once.

Details: Liquid

CCCCCCCCCCCCCCCCCCCCC [heneicosane]
Details	vapor or sublimation pressure [kPa]
351.54 K	0.000396
361.52 K	0.000971
371.42 K	0.0022
381.65 K	0.00498
391.86 K	0.0106
402.05 K	0.0213
422.19 K	0.0751
432.27 K	0.133
442.3 K	0.228
452.22 K	0.378
461.96 K	0.611

CCCCCCCCCCCCCCCCCCCCCCCCCCC [heptacosane]
Details	vapor or sublimation pressure
401.68 K	0.000592 kPa
401.69 K	0.00059 kPa
411.78 K	0.00129 kPa
411.81 K	0.0013 kPa
421.93 K	0.00269 kPa
421.95 K	0.00272 kPa
432.03 K	0.00556 kPa
442.18 K	0.011 kPa
452.27 K	0.0214 kPa
462.27 K	0.0405 kPa and 0.0401 kPa

CCCCCCCCCCCCCCCCCCCCCCCCCCCCC [nonacosane]
Details	vapor or sublimation pressure
422.1 K	0.00097 kPa and 0.000971 kPa
432.12 K	0.00206 kPa
442.17 K	0.00421 kPa
442.19 K	0.00417 kPa
452.2 K	0.00824 kPa
452.23 K	0.00819 kPa

CCCCCCCCCCCCCCCCCCCCCCCCC [pentacosane]
Details	vapor or sublimation pressure
381.69 K	0.000331 kPa
391.91 K	0.000783 kPa
402.03 K	0.00178 kPa
411.75 K	0.00383 kPa
411.78 K	0.00383 kPa
422.02 K	0.00802 kPa
432.21 K	0.0158 kPa
442.33 K	0.0296 kPa
442.34 K	0.0299 kPa
452.24 K	0.0541 kPa
452.25 K	0.0534 kPa
461.95 K	0.0926 kPa
461.98 K	0.0923 kPa and 0.0938 kPa

CCCCCCCCCCCCCCCCCCCCCCCCCCCCCC [triacontane]
Details	vapor or sublimation pressure [kPa]
432.36 K	0.00115
432.37 K	0.00113
442.48 K	0.00233
452.32 K	0.00457
452.34 K	0.00451

CCCCCCCCCCCCCCCCCCCCCCC [tricosane]
Details	vapor or sublimation pressure [kPa]
412.18 K	0.0129
422.26 K	0.0248
422.29 K	0.0247
432.34 K	0.0461
442.33 K	0.0839
452.22 K	0.143
461.99 K	0.242
